Data set [1] has as its system Septoria tritici. The experiment in a line: Test D: preventive spray on wheat seedlings, Septoria tritici (wheat leaf blotch), visual disease rating. Format: in vivo. The note with it: Zymoseptoria tritici, topical, 504 h, 100 = 100% disease control, 0 = no disease control relative to controls. From the text:
(§1) General protocol for preparing test suspensions for Tests A-H: the test compounds were first dissolved in acetone in an amount equal to 3% of the final volume and then suspended at the desired concentration (in ppm) in acetone and purified water (50/50 mix by volume) containing 250 ppm of the surfactant Trem® 014 (polyhydric alcohol esters). The resulting test suspensions were then used in Tests A-F. Spraying a 40 ppm test suspension to the point of run-off on the test plants was the equivalent of a rate of 160 g/ha. Unless otherwise indicated, the rating values indicate a 40 ppm test suspension was used. The test suspension was sprayed to the point of run-off on wheat seedlings. The following day the seedlings were inoculated with a spore suspension of Septoria tritici (the causal agent of wheat leaf blotch) and incubated in saturated atmosphere at 24° C. for 48 h, and then moved to a growth chamber at 20° C. for 19 days, after which time visual disease ratings were made. Results for Tests A-F are given in Table A. In the Table, a rating of 100 indicates 100% disease control and a rating of 0 indicates no disease control (relative to the controls). A dash (-) indicates no test results.

In data set [2] the test system is Blumeria graminis f. sp. tritici. As to the kind of experiment: Test F: preventive spray on wheat seedlings, Blumeria graminis f. sp. tritici (wheat powdery mildew), visual disease rating. Format: in vivo. The note with it: topical, 192 h, 100 = 100% disease control, 0 = no disease control relative to controls.
Source text: as §1, with “spore dust” for “spore suspension”, “of Blumeria graminis f. sp.” for “of Septoria”, “tritici (also known as Erysiphe graminis f. sp. tritici, the” for “tritici (the”, “wheat powdery mildew)” for “wheat leaf blotch)”, “in” for “in saturated atmosphere at 24° C. for 48 h, and then moved to”, “for 8” for “for 19”

Data set [3] deals with Botrytis cinerea. The experiment in a line: Test A: preventive spray on tomato seedlings, Botrytis cinerea (tomato Botrytis), visual disease rating. Format: in vivo. The note with it: 100 = 100% disease control, 0 = no disease control relative to controls.
Source text: as §1, with “tomato” for “wheat”, “Botrytis cinerea” for “Septoria tritici”, “tomato Botrytis)” for “wheat leaf blotch)”, “20°” for “24°”, “27°” for “20°”, “3” for “19”

Data set [4] deals with Septoria nodorum. The experiment in a line: Test C: preventive spray on wheat seedlings, Septoria nodorum (Septoria glume blotch), visual disease rating. Format: in vivo. The note with it: Parastagonospora nodorum, topical, 264 h, 100 = 100% disease control, 0 = no disease control relative to controls. The source says: General protocol for preparing test suspensions for Tests A-H: the test compounds were first dissolved in acetone in an amount equal to 3% of the final volume and then suspended at the desired concentration (in ppm) in acetone and purified water (50/50 mix by volume) containing 250 ppm of the surfactant Trem® 014 (polyhydric alcohol esters). The resulting test suspensions were then used in Tests A-F. Spraying a 40 ppm test suspension to the point of run-off on the test plants was the equivalent of a rate of 160 g/ha. Unless otherwise indicated, the rating values indicate a 40 ppm test suspension was used. The test suspension was sprayed to the point of run-off on wheat seedlings. The following day the seedlings were inoculated with a spore suspension of Septoria nodorum (the causal agent of Septoria glume blotch) and incubated in a saturated atmosphere at 20° C. for 48 h, and then moved to a growth chamber at 20° C. for 9 days, after which time visual disease ratings were made. Results for Tests A-F are given in Table A. In the Table, a rating of 100 indicates 100% disease control and a rating of 0 indicates no disease control (relative to the controls). A dash (-) indicates no test results.

Data set [5] concerns Puccinia recondita f. sp. tritici. The experiment in a line: Test E2: preventive spray on wheat seedlings, Puccinia recondita f. sp. tritici (wheat leaf rust), visual disease rating. The note with it: topical, 192 h, 100 = 100% disease control, 0 = no disease control relative to controls. Format: in vivo. The source says:
General protocol for preparing test suspensions for Tests A-H: the test compounds were first dissolved in acetone in an amount equal to 3% of the final volume and then suspended at the desired concentration (in ppm) in acetone and purified water (50/50 mix by volume) containing 250 ppm of the surfactant Trem® 014 (polyhydric alcohol esters). The resulting test suspensions were then used in Tests A-F. Spraying a 40 ppm test suspension to the point of run-off on the test plants was the equivalent of a rate of 160 g/ha. Unless otherwise indicated, the rating values indicate a 40 ppm test suspension was used. The test suspension was sprayed to the point of run-off on wheat seedlings. The following day the seedlings were inoculated with a spore suspension of Puccinia recondita f. sp. tritici (the causal agent of wheat leaf rust) and incubated in a saturated atmosphere at 20° C. for 24 h, and then moved to a growth chamber at 20° C. for 7 days, after which time visual disease ratings were made. Results for Tests A-F are given in Table A. In the Table, a rating of 100 indicates 100% disease control and a rating of 0 indicates no disease control (relative to the controls). A dash (-) indicates no test results.

In the case of `Cc1cc(Cl)c(Nc2c(-c3ccc(F)cc3Cl)c(C)nn2C)c(Cl)c1` [Compound 13, 4-(2-chloro-4-fluorophenyl)-N-(2,6-dichloro-4-methylphenyl)-1,3-dimethyl-1H-pyrazol-5-amine], the melting point lay within 188 to 189 °C. Also, the pest or weed control at 40 µg/mL in data set [1] amounted to 100%. Moreover, the pest or weed control at 40 µg/mL in data set [2] is 100%. The pest or weed control at 40 µg/mL in data set [3] is 100%. For the same compound, in data set [4], the pest or weed control at 40 µg/mL was found to be 0%. In data set [5], this compound displayed a pest or weed control at 40 µg/mL of 100%.
Consider `Cc1cc(F)c(Nc2c(-c3ccc(F)cc3Br)c(C)nn2C)c(F)c1` [Compound 14, 4-(2-bromo-4-fluorophenyl)-N-(2,6-difluoro-4-methylphenyl)-1,3-dimethyl-1H-pyrazol-5-amine], for which the melting point lay within 114 to 116 °C. Moreover, the pest or weed control at 40 µg/mL in data set [1] came to 100%. For the same compound, the pest or weed control at 40 µg/mL in data set [2] stood at 100%. This compound also had a pest or weed control at 40 µg/mL in data set [3] of 100%. In data set [4], this compound showed a pest or weed control at 40 µg/mL of 86%. Besides, the pest or weed control at 40 µg/mL in data set [5] worked out at 100%.

These data come from patent US9464056B2, “Fungicidal 4-methylanilino pyrazoles” (E. I. DU PONT DE NEMOURS AND COMPANY, priority 2012, dated 2016).
